Measurements from article PMC3063827, “Myosin-cross-reactive antigen (MCRA) protein from Bifidobacterium breve is a FAD-dependent fatty acid hydratase which has a function in stress protection” (BMC Biochemistry, 2011).

Target: T1, MCRA (myosin-cross-reactive antigen; FAD-dependent fatty acid hydratase) (Bifidobacterium breve, UniProt F1CWI2)
T1 construct: 1878 bp gene), N-terminal 6x His tag, pET28 (pBBI2), E. coli BL21 Star, HisTrap purified, ~66 kDa on SDS-PAGE; primers begin at MYYSSGNYE
T1 sequence (F1CWI2 1-625): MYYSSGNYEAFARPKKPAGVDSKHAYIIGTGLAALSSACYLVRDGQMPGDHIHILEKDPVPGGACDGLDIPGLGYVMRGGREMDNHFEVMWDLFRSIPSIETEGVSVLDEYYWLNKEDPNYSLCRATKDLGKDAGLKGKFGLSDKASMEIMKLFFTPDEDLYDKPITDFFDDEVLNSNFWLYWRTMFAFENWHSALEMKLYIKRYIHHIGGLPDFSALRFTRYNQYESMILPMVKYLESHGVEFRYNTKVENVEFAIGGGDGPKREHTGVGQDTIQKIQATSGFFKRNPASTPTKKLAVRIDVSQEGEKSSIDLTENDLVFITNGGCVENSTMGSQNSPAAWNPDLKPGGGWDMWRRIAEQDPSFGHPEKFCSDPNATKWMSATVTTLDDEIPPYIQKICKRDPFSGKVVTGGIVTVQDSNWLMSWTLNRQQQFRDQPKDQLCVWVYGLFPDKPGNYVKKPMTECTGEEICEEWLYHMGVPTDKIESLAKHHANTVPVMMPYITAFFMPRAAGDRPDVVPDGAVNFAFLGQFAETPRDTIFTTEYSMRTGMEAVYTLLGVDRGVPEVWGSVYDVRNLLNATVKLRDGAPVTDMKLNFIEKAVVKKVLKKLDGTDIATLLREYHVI
Assay: UV-Vis absorption spectrum of purified protein and of supernatant after heat denaturation
Assay type: binding
Conditions: non-covalent, co-purified; flavin-like maxima ~450 and 370 nm; FAD identity rests on spectrum and analogy to S. pyogenes MCRA (FMN also run as reference)

Cc1cc2nc3c(=O)[nH]c(=O)nc-3n(C[C@H](O)[C@H](O)[C@H](O)COP(=O)(O)OP(=O)(O)OC[C@H]3O[C@@H](n4cnc5c(N)ncnc54)[C@H](O)[C@@H]3O)c2cc1C [FAD]
UV-Vis absorption spectrum of purified protein and of supernatant after heat den: flavin cofactor is released in the solution upon protein denaturation by heat
